In US7642400B2, “Protein kinase C iota” (Mayo Foundation for Medical Education and Research, priority 2004, dated 2010):
Where a name gives a salt, the structure may show the parent alone. Read-outs that look alike come from different tables or passages of the source.

Target: T1, interaction of PKCι polypeptides with PAR6 polypeptides (Homo sapiens, UniProt P41743)
T1 construct: amino acids 1-113 or a full-length PKCι polypeptide; 6xHis; made in house
T1 sequence (P41743 10-122): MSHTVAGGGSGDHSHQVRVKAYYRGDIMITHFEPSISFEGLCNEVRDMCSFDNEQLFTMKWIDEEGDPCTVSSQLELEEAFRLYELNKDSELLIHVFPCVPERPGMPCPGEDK
Assay: Secondary screen: PYN bound to plate-immobilised biotin-tagged PAR6
Type: binding
Details: for dose-response analysis using the secondary screening assay: increasing amounts, e.g. 0, 0.1, 1, 10, 100, and 100 μM
Description: Multiple test compounds that were classified as hits in the primary screen as well as additional related compounds were evaluated in a secondary screen designed as follows. Briefly, a 96-well microtiter plate coated with streptavidin (Nunc #436014) was incubated for 2-4 hours at room temperature with 100 μl of a 20-30 μg/ml solution of biotin-tagged PAR6 (whole polypeptide) in phosphate-buffered saline containing Tween-20 (PBST). Plates were washed twice with PBST, then once with incubation buffer (50 mM Tris, pH 8.0; 135 mM NaCl; 10% glycerol; 0.002% EDTA). Incubation buffer (50 μl) was added to each well. The compounds to be tested were added (10 μl) followed by PYN (50 μl) diluted in incubation buffer to an approximate concentration of 4000-5000 relative fluorescent units per 50 μl. Plates were incubated overnight at 4° C. Plates were washed twice with incubation buffer, after which 50 μl incubation buffer was added to retain moisture in the wells. The amount of PYN bound on the plates was determined by measuring yellow fluorescence (532/526) in a Typhoon imager. Fluorescence was quantitated by Softmax Pro software.
A dose-response analysis was performed using the secondary screening assay and increasing amounts (e.g., 0, 0.1, 1, 10, 100, and […]) of gossypol, hexestrol, thimerosal, ebselen, ATG, ATM, ellagic acid, cisplatin, apomorphine, or phenylmercuric acetate.

[1] = amount of PYN bound to biotin-tagged PAR6 plates

Row | Molecule | Secondary Screen [1] | other results
1 | C[n+]1c2cc(N)ccc2cc2ccc(N)cc21.[Cl-] [Acriflavinium hydrochloride] | No effect | 
2 | N=C(N)NC(=O)c1nc(Cl)c(N)nc1N [Amiloride] | No effect | 
3 | CCN(CC)Cc1cc(Nc2ccnc3cc(Cl)ccc23)ccc1O [Amodiaquine] | No effect | 
4 | CCCc1ncc(C[n+]2ccccc2C)c(N)n1 [Amprolium] | No effect | 
5 | CN1CCc2cccc3c2[C@H]1Cc1ccc(O)c(O)c1-3 [Apomorphine] | Confirmed | Secondary Screen (amount of PYN bound to biotin-tagged PAR6 plates, listed as apomorphine): confirmed; dose-response analysis using the secondary screening assay: dose-dependent response was detected
6 | COc1ccc(C(Cl)=C(c2ccc(OC)cc2)c2ccc(OC)cc2)cc1 [Chlorotrianisene] | No effect (related compound | 
7 | Oc1cc(O)c2c(c1)O[C@H](c1ccc(O)c(O)c1)[C@@H](O)C2 [Cianidanol] | No effect (related compound | 
8 | N.N.[Cl][Pt][Cl] [Cisplatin] | Confirmed | Secondary Screen (amount of PYN bound to biotin-tagged PAR6 plates, listed as cisplatin): confirmed; dose-response analysis using the secondary screening assay: dose-dependent response was detected
9 | Cc1cc(N)c2ccccc2[n+]1CCCCCCCCCC[n+]1c(C)cc(N)c2ccccc21 [Dequalinium chloride] | No effect | 
10 | O=c1oc2c(O)c(O)cc3c(=O)oc4c(O)c(O)cc1c4c23 [Ellagic acid] | Confirmed | Secondary Screen (amount of PYN bound to biotin-tagged PAR6 plates, listed as ellagic acid): confirmed; dose-response analysis using the secondary screening assay: dose-dependent response was detected
11 | CNC[C@H](O)c1ccc(O)c(O)c1 [Epinephrine bitartrate] | No effect | 
12 | CCC(=O)O[C@H]1[C@H](O[C@@H]2[C@@H](C)[C@H](O[C@H]3C[C@@](C)(OC)[C@@H](O)[C@H](C)O3)[C@@H](C)C(=O)O[C@H](CC)[C@@](C)(O)[C@H](O)[C@@H](C)C(=O)[C@H](C)C[C@@]2(C)O)O[C@H](C)C[C@@H]1N(C)C [Erythromycin propionate lauryl sulfate] | No effect | 
13 | C[C@]12CC[C@@H](O)C[C@H]1CC[C@@H]1[C@@H]2CC[C@]2(C)C(=O)CC[C@@H]12 [Etiocholanolone] |  | Secondary Screen: No effect
14 | Nc1nc2ncc(CNc3ccc(C(=O)N[C@@H](CCC(=O)O)C(=O)O)cc3)nc2c(=O)[nH]1 [Folic acid] | No effect | 
15 | O=C1OCCN1/N=C/c1ccc([N+](=O)[O-])o1 [Furazolidone] | No effect | 
16 | O=C(O)c1cc(O)ccc1O [Gentisic acid] | No effect | 
17 | O=C(OCC(O)CO)c1ccccc1Nc1ccnc2cc(Cl)ccc12 (stereo not shown) [Glafenine] | No effect | 
18 | COc1ccc2c(c1OC)C(=O)O[C@@H]2[C@H]1c2cc3c(cc2CCN1C)OCO3 [Hydrastine] | No effect | 
19 | O=C(O)c1cc2ccccc2c(Cc2c(O)c(C(=O)O)cc3ccccc23)c1O.OCCOCCN1CCN(C(c2ccccc2)c2ccc(Cl)cc2)CC1 [Hyydroxyzine pamoate] | No effect | 
20 | CC(C)NCC(O)c1ccc(O)c(O)c1 (stereo not shown) [Isoproterenol hydrochloride] | No effect | 
21 | CC(=O)/N=c1/sc(S(N)(=O)=O)nn1C [Methazolamide] | No effect | 
22 | CC[C@@H](CO)NC(=O)[C@@H]1C=C2c3cccc4[nH]cc(c34)C[C@H]2N(C)C1 [Methylergonovine] | No effect | 
23 | CC[C@@]1([C@@H]2O[C@@H]([C@H]3O[C@@](O)(CO)[C@H](C)C[C@@H]3C)C[C@@H]2C)CC[C@H]([C@]2(C)CC[C@]3(C[C@H](O)[C@@H](C)[C@@H]([C@@H](C)[C@@H](OC)[C@H](C)C(=O)O)O3)O2)O1 [Monensin, sodium] | No effect | 

Row | Molecule | Secondary Screen [1] | other results
24 | COc1c(C)c2c(c(O)c1C/C=C(\C)CCC(=O)O)C(=O)OC2 [Mycophenolic acid] | No effect | 
25 | C[C@@H]1O[C@@H](O[C@H]2[C@H](Oc3cc(O)c4c(c3)O[C@H](c3ccc(O)cc3)CC4=O)O[C@H](CO)[C@@H](O)[C@@H]2O)[C@H](O)[C@H](O)[C@H]1O [Naringin] | No effect | 
26 | Nc1ccc(/N=N/c2ccccc2)c(N)n1 [Phenazopyridine] | No effect | 
27 | CC(=O)[O-].[Hg+][c]1ccccc1 [Phenylmercuric acetate] |  | Secondary Screen (amount of PYN bound to biotin-tagged PAR6 plates, acetate): Confirmed; Secondary Screen (amount of PYN bound to biotin-tagged PAR6 plates, listed as phenylmercuric acetate, acetate): confirmed; dose-response analysis using the secondary screening assay: dose-dependent response was detected
28 | COc1cc(NC(C)CCCN)c2ncccc2c1 (stereo not shown) [Primaquine phosphate] | No effect | 
29 | CC(C)[N+](C)(CCOC(=O)C1c2ccccc2Oc2ccccc21)C(C)C [Propantheline bromide] | No effect | 
30 | CN1CCCN=C1/C=C/c1cccs1 [Pyrantel pamoate] | Confirmed | Secondary Screen (amount of PYN bound to biotin-tagged PAR6 plates, listed as pyrantel pamoate): confirmed
31 | O=C1C=CC(=C(c2ccc(O)cc2)c2ccc(O)cc2)C=C1 [Rosolic acid] | No effect | 
32 | CC1=C(CC(=O)O)c2cc(F)ccc2/C1=C\c1ccc([S+](C)[O-])cc1 (stereo not shown) [Sulindac] | No effect | 
33 | C[CH2][Hg][S]c1ccccc1C(=O)[O-].[Na+] [Thimerosal] | Confirmed | Secondary Screen (amount of PYN bound to biotin-tagged PAR6 plates, listed as thimerosal): confirmed; dose-response analysis using the secondary screening assay: dose-dependent response was detected
34 | CC1=C(/C=C/C(C)=C/C=C/C(C)=C/C(=O)O)C(C)(C)CCC1 [Tretinon] | No effect | 
35 | CN(C)CCCN1c2ccccc2Sc2ccc(C(F)(F)F)cc21 [Triflupromazine] | No effect | 
36 | C[C@]12CC[C@@H]3c4ccc(O)cc4CC[C@H]3[C@@H]1CC[C@@H]2O [b-estradiol] | had no effect) | 
37 | CC1=C(C(=O)O)N2C(=O)[C@@H](NC(=O)[C@H](N)c3ccc(O)cc3)[C@H]2SC1 [cefadroxil] | had no effect) | 
38 | [H]/N=C(\N/C(=N/[H])NCCCCCCNC(=N)NC(=N)Nc1ccc(Cl)cc1)Nc1ccc(Cl)cc1 [chlorhexidine] | No effect | 
39 | O=C(CCCN1CC=C(n2c(=O)[nH]c3ccccc32)CC1)c1ccc(F)cc1 [droperidol] | droperidol had no effect) | 
40 | CCn1cc(C(=O)O)c(=O)c2cc(F)c(N3CCNCC3)nc21 [enoxacin] | lomefloxacin had no effect) | 
41 | COc1ccc([C@@H]2CC(=O)c3c(O)cc(O[C@@H]4O[C@H](CO[C@@H]5O[C@@H](C)[C@H](O)[C@@H](O)[C@H]5O)[C@@H](O)[C@H](O)[C@H]4O)cc3O2)cc1O [hespiridin] | hespiridin had no effect) | 
42 | CC[C@H](c1ccc(O)cc1)[C@@H](CC)c1ccc(O)cc1 [hexestrol] | hexestrol was confirmed) | dose-response analysis using the secondary screening assay: dose-dependent response was detected
43 | CCn1cc(C(=O)O)c(=O)c2cc(F)c(N3CCNC(C)C3)c(F)c21 (stereo not shown) [lomefloxacin] | lomefloxacin had no effect) | 
44 | Antimycin A | No effect | 
45 | Benzalkonium chloride | No effect | 
46 | Veratrine sulfate | No effect | 
